Consider three molecules from US10703751B2, “Amino-imidazopyridine derivatives as Janus kinase inhibitors and pharmaceutical use thereof” (LEO Pharma A/S, priority 2017, dated 2020).

Molecules are shown by their SMILES. pEC50, pIC50: −log10 of the molar value. Values after ≈ are worked out from the molar mass of the structure shown.

One series relates to STAT6 bla-RA1 cells. In words: STAT6 assay (IL-4 stimulated reporter cells). Type of series: cell-based. The following applies: for pEC50: interleukin 4 10 ng/mL; for STAT5/STAT6 EC50 ratio (selectivity for STAT6 over STAT5): selectivity for STAT6 over STAT5, from EC50. As for the experimental part:
Twenty-five μL of a STAT6 bla-RA1 (Invitrogen # K1243) cell suspension was seeded with a density of 30-40,000 cells/well in 384-well Black View-plates (PerkinElmer #6007460) with clear bottom in assay medium (Opti-MEM (Invitrogen #11058-021)+0.5% heat inactivated fetal bovine Serum (Invitrogen #10082-147)+1% non-essential amino acids (Invitrogen #11140-050)+1% sodium pyruvate (Invitrogen #11360-070)+1% penicillin/streptomycin (Invitrogen #15140-122)); containing 550 ng/mL of CD40 ligand (Invitrogen # PHP0025). The cell plates were incubated overnight in a humidified 37° C. air/CO2 (95%/5%) incubator. The following day, 125 nL of solutions of test compounds and reference compounds were transferred to cell plates using the Labcyte Echo 550 liquid handler. The plates were then incubated for 1 h in a humidified 37° C. air/CO2 (95%/5%) incubator. Hereafter recombinant human interleukin 4 (Invitrogen # PHC0045) were added to the plates also using the Labcyte Echo 550 to a final concentration of 10 ng/mL. The cells were then incubated for 4½-5 h in a humidified 37° C. air/CO2 (95%/5%) incubator. 8 μL of LiveBLAzer substrate mixture (Invitrogen # K1095) were then added to the assay plates, which were incubated overnight at RT. Fluorescence was then measured: Excitation: 405 nm; Emission: 460 nm (green channel), Emission: 535 nm (blue channel). Background was subtracted in both emission channels and the ratio 460/535 nm was calculated for each well.

The subject of a further series is STAT5 irfl-bla TF1 cells. In words: STAT5 assay (EPO stimulated reporter cells). Format: cell-based. The following applies: Homo sapiens, TF-1; erythropoietin (EPO) 10 ng/mL. As for the experimental part:
Twenty-five μL of a STAT5 irfl-bla TF1 (Invitrogen # K1219) cell suspension was seeded with a density of about 10,000 cells/well in 384-well Black View-plates (PerkinElmer #6007460) with clear bottom in assay medium (Opti-MEM (Invitrogen #11058-021)+0.5% heat inactivated fetal bovine Serum (Invitrogen #10082-147)+1% non-essential amino acids (Invitrogen #11140-050)+1% sodium pyruvate (Invitrogen #11360-070)+1% penicillin/streptomycin (Invitrogen #15140-122)). The cell plates were incubated overnight in a humidified 37° C. air/CO2 (95%/5%) incubator. The following day, 125 nL of solutions of test compounds and reference compounds were transferred to cell plates using the Labcyte Echo 550 liquid handler. The plates were then incubated for 1 h in a humidified 37° C. air/CO2 (95%/5%) incubator. Hereafter recombinant human erythropoietin (EPO) (Invitrogen # PHC9634) was added to the plates also using the Labcyte Echo 550 to a final concentration of 10 ng/mL. The cells were then incubated for 4½-5 h in a humidified 37° C. air/CO2 (95%/5%) incubator. 8 μL of LiveBLAzer substrate mixture (Invitrogen # K1095) were then added to the assay plates, which were then incubated overnight at RT. Fluorescence was then measured: Excitation: 405 nm; Emission: 460 nm (green channel), Emission: 535 nm (blue channel). Background was subtracted in both emission channels and the ratio 460/535 nm was calculated for each well.

In series [1] the target is CYP2B6 (Homo sapiens (Human), UniProt P20813). The series can be described thus: Reversible CYP inhibition, 2B6. Format: in vitro ADME. The following applies: up to 50 μM for Example 3. As for the experimental part:
(§1) Reversible CYP inhibition, time dependent CYP inhibition (TDI) and CYP induction was tested at Cyprotex PLC according to authority guidance.

For the next series, the target named is CYP2C8 (Homo sapiens (Human), UniProt P10632). The series can be described thus: Reversible CYP inhibition, 2C8. Type of series: in vitro ADME. The settings on record: up to 50 μM for Example 3. As for the experimental part: as §1
Chain of CYP2C8 (P10632 whole entry): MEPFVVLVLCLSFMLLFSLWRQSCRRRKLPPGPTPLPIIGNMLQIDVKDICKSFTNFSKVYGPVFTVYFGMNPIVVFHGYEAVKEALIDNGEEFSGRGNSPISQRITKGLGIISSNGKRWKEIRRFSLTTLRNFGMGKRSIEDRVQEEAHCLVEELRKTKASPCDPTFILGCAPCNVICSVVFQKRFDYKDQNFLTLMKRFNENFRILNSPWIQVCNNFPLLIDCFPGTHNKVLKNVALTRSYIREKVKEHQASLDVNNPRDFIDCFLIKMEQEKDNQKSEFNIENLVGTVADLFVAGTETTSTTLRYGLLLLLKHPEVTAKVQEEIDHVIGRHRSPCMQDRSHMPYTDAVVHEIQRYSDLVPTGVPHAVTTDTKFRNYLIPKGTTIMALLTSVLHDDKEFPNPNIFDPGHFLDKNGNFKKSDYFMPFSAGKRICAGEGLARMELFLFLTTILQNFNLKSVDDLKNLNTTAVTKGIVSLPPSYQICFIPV
For the next series, the target named is CYP2C9 (Homo sapiens (Human), UniProt P11712). In words: Reversible CYP inhibition, 2C9. Type of series: in vitro ADME. The settings on record: up to 50 μM for Example 3, up to 25 μM for Examples 644 and 641. As for the experimental part:
as §1

In a further series the target is CYP2D6 (Homo sapiens (Human), UniProt P10635). The series can be described thus: Reversible CYP inhibition, 2D6. The settings on record: up to 50 μM for Example 3, up to 25 μM for Examples 644 and 641. Format: in vitro ADME. As for the experimental part: as §1
Chain of CYP2D6 (P10635 whole entry): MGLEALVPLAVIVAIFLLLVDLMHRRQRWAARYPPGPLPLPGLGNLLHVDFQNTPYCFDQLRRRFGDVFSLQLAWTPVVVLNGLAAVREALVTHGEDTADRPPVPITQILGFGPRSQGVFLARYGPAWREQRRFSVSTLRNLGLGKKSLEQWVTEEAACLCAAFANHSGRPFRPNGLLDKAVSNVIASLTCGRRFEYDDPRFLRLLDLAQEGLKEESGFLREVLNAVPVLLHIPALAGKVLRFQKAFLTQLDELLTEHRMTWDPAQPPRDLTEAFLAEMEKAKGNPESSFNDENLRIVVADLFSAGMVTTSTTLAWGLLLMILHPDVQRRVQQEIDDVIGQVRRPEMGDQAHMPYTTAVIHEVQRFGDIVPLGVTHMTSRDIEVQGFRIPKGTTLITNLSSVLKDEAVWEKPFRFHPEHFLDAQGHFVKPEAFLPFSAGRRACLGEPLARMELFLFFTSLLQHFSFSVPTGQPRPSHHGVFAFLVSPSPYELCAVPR
For series [2], the system named is CYP. The series can be described thus: Reversible CYP inhibition, overall statement. The following applies: substrate concentrations up to 50 μM. Type of series: in vitro ADME. As for the experimental part:
as §1

Series [3] has as its system CYP. The series can be described thus: Time dependent CYP inhibition (TDI). Format: in vitro ADME. As for the experimental part:
as §1

The next series relates to CYP1A2 gene expression. The series can be described thus: CYP induction, CYP1A2 mRNA expression. Format: in vitro ADME. The settings on record: Example 3: up to at least a concentration of 10 μM. As for the experimental part: as §1
(§2) Induction of CYP1A2, CYP2B6 and CYP3A4 gene expression can serve as sensitive representative endpoints for activation of aryl hydrocarbon receptor (AhR), […], respectively. Induction of these nuclear receptors was assessed by measuring the increase in mRNA encoding for […], respectively, at relevant concentrations.
(§3) A >2-fold shift indicate CYP Induction.

A further series concerns CYP1A2. The series can be described thus: CYP induction, CYP1A2 mRNA expression. The settings on record: human, mean fold shift compared to vehicle, read-out: Fold shift in mRNA expr. (CYP 1A2); for CYP1A2 mRNA fold change vs vehicle at 0.1 μM: >2-fold indicates induction. Format: in vitro ADME. As for the experimental part:
as §1, §2, §3

The next series deals with CYP2B6 gene expression. In words: CYP induction, CYP2B6 mRNA expression. Type of series: in vitro ADME. The settings on record: Example 3: up to at least a concentration of 10 μM; Example 644: at 10 μM. As for the experimental part: as §1, §2, §3
Series [4] deals with CYP2B6. In words: CYP induction, CYP2B6 mRNA expression. Type of series: in vitro ADME. The settings on record: human, mean fold shift compared to vehicle, read-out: Fold shift in mRNA expr. (CYP 2B6). As for the experimental part: as §1, §2, §3
For another series, the system named is CYP3A4 gene expression. In words: CYP induction, CYP3A4 mRNA expression. Format: in vitro ADME. As for the experimental part:
as §1, §2, §3

Another series relates to CYP3A4. The series can be described thus: CYP induction, CYP3A4 mRNA expression. Format: in vitro ADME. The settings on record: human, mean fold shift compared to vehicle, read-out: Fold shift in mRNA expr. (CYP 3A4). As for the experimental part:
as §1, §2, §3

Series [5] can be described thus: Aqueous solubility of crystalline material. Type of series: physicochemical. The following applies: aqueous medium, aqueous buffer, thermodynamic from solid. As for the experimental part: The aqueous solubility of crystalline Example 3, Example 644 and 641 of WO2011086053 at different pH's was evaluated.

Chain of CYP2C9 (P11712 whole entry): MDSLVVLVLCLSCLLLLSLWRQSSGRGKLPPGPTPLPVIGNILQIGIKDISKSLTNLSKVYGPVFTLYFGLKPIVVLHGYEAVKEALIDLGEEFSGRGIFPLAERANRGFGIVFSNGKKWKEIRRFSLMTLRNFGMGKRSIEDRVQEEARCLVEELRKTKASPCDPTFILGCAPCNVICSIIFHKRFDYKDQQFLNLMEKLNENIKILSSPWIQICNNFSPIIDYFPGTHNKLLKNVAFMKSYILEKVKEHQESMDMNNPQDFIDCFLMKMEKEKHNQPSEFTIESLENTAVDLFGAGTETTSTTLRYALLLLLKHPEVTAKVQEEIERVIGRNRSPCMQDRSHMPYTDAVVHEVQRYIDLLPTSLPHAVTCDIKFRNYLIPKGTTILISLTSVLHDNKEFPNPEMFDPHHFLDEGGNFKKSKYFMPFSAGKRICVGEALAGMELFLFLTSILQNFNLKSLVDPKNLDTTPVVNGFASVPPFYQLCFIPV
Chain of CYP2B6 (Homo sapiens (Human), UniProt P20813) (P20813 whole entry): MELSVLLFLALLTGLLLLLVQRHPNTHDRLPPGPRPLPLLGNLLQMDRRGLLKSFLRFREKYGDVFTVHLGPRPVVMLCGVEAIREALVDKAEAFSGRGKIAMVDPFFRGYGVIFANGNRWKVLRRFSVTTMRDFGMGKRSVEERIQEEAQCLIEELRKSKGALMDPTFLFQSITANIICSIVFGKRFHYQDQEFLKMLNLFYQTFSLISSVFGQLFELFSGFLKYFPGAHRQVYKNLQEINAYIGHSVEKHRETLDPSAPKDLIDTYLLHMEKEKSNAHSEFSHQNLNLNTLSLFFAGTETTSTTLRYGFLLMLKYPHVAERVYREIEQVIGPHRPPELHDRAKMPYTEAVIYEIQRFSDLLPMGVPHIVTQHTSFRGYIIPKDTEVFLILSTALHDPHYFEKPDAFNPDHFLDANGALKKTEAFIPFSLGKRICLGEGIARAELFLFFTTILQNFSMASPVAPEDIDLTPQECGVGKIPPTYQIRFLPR

For orientation: pEC50 means the negative decadic logarithm of the EC50, by convention in mol/L. A higher pEC50 goes with a small EC50. By pIC50 is commonly meant the negative decadic logarithm of the IC50, by convention in mol/L. A high value points to a small IC50. Broadly, the solubility is the concentration that dissolves in the medium under given conditions. A higher solubility goes with a readily soluble substance. As to `CNc1cc2c(cn1)nc([C@@H](C)O)n2[C@H]1CC[C@H](CC#N)CC1` [Example 3, trans-2-[4-[2-[(1R)-1-Hydroxyethyl]-6-(methylamino)imidazo[4,5-c]pyridin-1-yl]cyclohexyl]acetonitrile], in the series on STAT6 bla-RA1 cells, the pEC50 was 7.02 and the “STAT5/STAT6 EC50 ratio (selectivity for STAT6 over STAT5)” value is listed as 68. Moreover, the pEC50 in the series on STAT5 irfl-bla TF1 cells is 5.19. Moreover, at CYP2B6 [1], the negative-log IC50 (pIC50) was under 4.30. The molecule also gave a pIC50 against CYP2C8 of under 4.30. This molecule showed a pIC50 against CYP2C9 of under 4.30. At CYP2D6, this molecule had a pIC50 of under 4.30. For the same molecule, the “CYP inhibition (in words)” value with CYP [2] was “no CYP inhibition”. Further, the “time dependent CYP inhibition (in words)” value with CYP [3] is reported as “No time dependent CYP inhibition was indicated”. In addition, the “CYP1A2 induction (in words)” value in the series on CYP1A2 gene expression is reported as “does not cause”. Further, in the series with CYP1A2, the CYP1A2 mRNA fold change vs vehicle at 0.1 μM was determined as 0.8, the CYP1A2 mRNA fold change vs vehicle at 1 μM was determined as 0.7 and the CYP1A2 mRNA fold change vs vehicle at 10 μM turned out to be 0.8. Also, the “CYP2B6 induction (in words)” value with CYP2B6 gene expression was “does not cause”. Moreover, in the series with CYP2B6 [4], the fold change in CYP2B6 mRNA expression vs vehicle at 0.1 μM was determined as 1.1, the fold change in CYP2B6 mRNA expression vs vehicle at 1 μM turned out to be 1.5 and the fold change in CYP2B6 mRNA expression vs vehicle at 10 μM was 1.7. The “CYP3A4 induction (in words)” value in the series on CYP3A4 gene expression is given as “does not cause CYP3A4 induction up to at least a concentration of 50 μM”. Further, in the series on CYP3A4, the CYP3A4 mRNA fold induction vs vehicle at 5 μM came to 1.2, the CYP3A4 mRNA fold induction vs vehicle at 20 μM is 1.5 and the CYP3A4 mRNA fold induction vs vehicle at 50 μM worked out at 2. Moreover, in series [5] (pH 2.0, crystalline material), the solubility was over 346000 µg/mL. Also, the solubility in series [5] (pH 7.4, crystalline material) was 12300 µg/mL (≈ 39.2 mM). Besides, in series [5] (pH 9.0, crystalline material), the solubility worked out at 11100 µg/mL (≈ 35.4 mM).

For the molecule `C[C@@H](O)c1nc2cnc3[nH]ccc3c2n1[C@H]1CC[C@H](CC#N)CC1` [Example 644 of WO2011086053], the pEC50 is 7.98 in the series with STAT6 bla-RA1 cells and 6.91 with STAT5 irfl-bla TF1 cells. In addition, the negative-log IC50 (pIC50) at CYP2C9 and against CYP2D6 was under 4.60 throughout. Further, the “CYP2B6 induction (in words)” value with CYP2B6 gene expression was “CYP2B6 induction at a concentration of 10 μM”. Further, the “CYP3A4 induction (in words)” value in the series with CYP3A4 gene expression is on record as “causes CYP3A4 induction at a concentration of 10 μM”. Besides, the solubility in series [5] (pH 2.0, crystalline material) is 2470 µg/mL (≈ 7.64 mM); in series [5] (pH 7.4, crystalline material) it was 136 µg/mL (≈ 0.421 mM); in series [5] (pH 9.0, crystalline material) it was 9.9 µg/mL (≈ 0.0306 mM).

Turning to `C[C@@H](O)c1nc2cnc3[nH]ccc3c2n1[C@H]1CC[C@H](C#N)CC1` [Example 641 of WO2011086053], in the series with STAT6 bla-RA1 cells, the pEC50 is 6.75 and the “STAT5/STAT6 EC50 ratio (selectivity for STAT6 over STAT5)” value turned out to be 32. Besides, the pEC50 in the series with STAT5 irfl-bla TF1 cells was 5.24. On CYP2C9, the pIC50 was under 4.60. The pIC50 against CYP2D6 is under 4.60. Further, in the series with CYP1A2, the CYP1A2 mRNA fold change vs vehicle at 0.1 μM stood at 0.9, the CYP1A2 mRNA fold change vs vehicle at 1 μM turned out to be 0.8 and the CYP1A2 mRNA fold change vs vehicle at 10 μM amounted to 0.9. In the series on CYP2B6 [4], the fold change in CYP2B6 mRNA expression vs vehicle at 0.1 μM is 1, the fold change in CYP2B6 mRNA expression vs vehicle at 1 μM came out at 1.3 and the fold change in CYP2B6 mRNA expression vs vehicle at 10 μM stood at 1.4. Also, in the series with CYP3A4 gene expression, the “CYP3A4 induction (in words)” value is “causes CYP3A4 induction at a concentration of 20 μM and above”. Further, in the series on CYP3A4, the CYP3A4 mRNA fold induction vs vehicle at 5 μM was determined as 1.8, the CYP3A4 mRNA fold induction vs vehicle at 20 μM was found to be 2.5 and the CYP3A4 mRNA fold induction vs vehicle at 50 μM was found to be 4. Further, in series [5] (pH 2.0, crystalline material), the solubility worked out at 90000 µg/mL (≈ 291 mM). This molecule returned a solubility in series [5] (pH 7.4, crystalline material) of 2260 µg/mL (≈ 7.31 mM). The same molecule returned a solubility in series [5] (pH 9.0, crystalline material) of 2280 µg/mL (≈ 7.37 mM).
